Laboratory results as given in patent US6815451B2, “1,2,3,4-Tetrahydroisoquinolines derivatives as urotensin II receptor antagonists” (Actelion Pharmaceuticals Ltd., priority 2001, dated 2004).

Legend:
isolated rat aortic arch = settings: for pD2′ (functional inhibitory potency): Wistar rat aortic arch rings, 20 min incubation with test compound before cumulative doses of human urotensin II
Description: 2) Inhibition of Human Urotensin II-Induced Contractions of Isolated Rat Aortic Arch Adult Wistar rats are anesthetized (CO2 inhalation) and exsanguinated. The aortic arch is excised, dissected and cut in 3 rings of 3 mm, ring #1 being the more proximal and ring #3 being the more distal. Each ring is suspended in a 10 mL isolated organ bath filled with Krebs-Henseleit solution (in mM; NaCl 115, KCl 4.7, MgSO4 1.2, KH2PO4 1.5, NaHCO3 25, CaCl2 2.5, glucose 10; pH 7.4) kept at 37° C. and gassed with 95% O2 and 5% CO2. The rings are connected to force transducers and isometric tension is recorded (EMKA Technologies SA, Paris, France). The rings are stretched to a resting tension of 3 g. […] The functional inhibitory potency of the test compound is assessed by calculating the pD2′ according to the formula: pD2′=Log (CR-1)-Log [B], where CR is the ratio of the maximal effect without/with antagonist and [B] the concentration of the antagonist.

[1] = target: T1, urotensin II receptor on TE-671 rhabdomyosarcoma cells (Homo sapiens, UniProt Q9UKP6); assay: Inhibition of human [125I]-urotensin II binding to a rhabdomyosarcoma cell line (whole cell binding); settings: TE-671 whole cells, 20 pM human [125I]urotensin II, 4 h at 20° C.
T1 construct: host or cells: TE-671 rhabdomyosarcoma cells
T1 sequence (Q9UKP6 1-389): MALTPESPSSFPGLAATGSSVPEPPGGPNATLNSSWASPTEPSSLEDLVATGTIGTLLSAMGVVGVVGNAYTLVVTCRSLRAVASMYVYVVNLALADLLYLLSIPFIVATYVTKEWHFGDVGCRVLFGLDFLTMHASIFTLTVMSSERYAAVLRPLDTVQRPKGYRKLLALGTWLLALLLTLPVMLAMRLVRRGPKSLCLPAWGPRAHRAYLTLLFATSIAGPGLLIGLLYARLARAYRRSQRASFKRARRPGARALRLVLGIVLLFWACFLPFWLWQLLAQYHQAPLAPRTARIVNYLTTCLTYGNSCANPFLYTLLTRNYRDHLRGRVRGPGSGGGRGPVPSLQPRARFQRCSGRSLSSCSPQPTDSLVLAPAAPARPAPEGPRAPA
Description: 1) Inhibition of Human [125I]-urotensin II Binding to a Rhabdomyosarcoma Cell Line
Whole cell binding of human [^125I]-urotensin II is performed using human-derived TE-671 rhabdomyosarcoma cells (Deutsche Sammlung von Mikroorganismen und Zellkulturen, cell line #ACC-263), by methods adapted from a whole cell endothelin binding assay (Breu V et al., In vitro characterization of Ro-46-2005, a novel synthetic non-peptide antagonist of ETA and ETB receptors. FEBS Lett. 1993, 334, 210-214).
The assay is performed in 250 μL Dubecco's modified eagle medium, pH 7.4 (GIBCO BRL, CatNo 31885-023), including 25 mM HEPES (Fluka, CatNo 05473), 1.0% DMSO (Fluka, CatNo 41644) and 0.5% (w/v) BSA Fraction V (Fluka, CatNo 05473) in polypropylene microtiter plates (Nunc, CatNo 442587). 300,000 suspended cells are incubated with gentle shaking for 4 h at 20° C. with 20 pM human [^125I]Urotensin II (Anawa Trading SA, Wangen, Switzerland, 2130 Ci/mmol) and increasing concentrations of unlabeled antagonist. Minimum and maximum binding are derived from samples with and without 100 nM unlabelled U-II, respectively. After the 4 h incubation period, the cells are filtered onto GF/C filter plates (Packard, CatNo 6005174). The filter plates are dried, and then 50 μL scintillation cocktail (Packard, MicroScint 20, CatNo 6013621) is added to each well. The filter plates are counted in a microplate counter (Packard Bioscience, TopCount NXT).
All test compounds are dissolved and diluted in 100% DMSO. A […] dilution into assay buffer is performed prior to addition to the assay. […] Specific binding is the difference between maximum binding and minimum binding, as described above.

Structure (SMILES) | IC50 [1] | EC50 (isolated rat aortic arch) | pD2′ (functional inhibitory potency) (isolated rat aortic arch)
COc1ccc(CC2c3c(OC)ccc(OC)c3CCN2CCNC(=O)Nc2ccnc3ccccc23)cc1OC (stereo not shown) [Example 93, 1-{2-[1-(3,4-Dimethoxy-benzyl)-5,8-dimethoxy-3,4-dihydro-1H-isoquinolin-2-yl]-ethyl}-3-quinolin-4-yl-urea] |  |  | 5.45
COc1cc2c(cc1OC)C(CCc1cc(F)ccc1F)N(CCNC(=O)Nc1cc(C)nc3ccccc13)CC2 (stereo not shown) [Example 20, 1-(2-{1-[2-(2,5-Difluoro-phenyl)-ethyl]-6,7-dimethoxy-3,4-dihydro-1H-isoquinolin-2-yl}-ethyl)-3-(2-methyl-quinolin-4-yl)-urea] | 67 nM |  | 
CC(C)[C@H](NC(=O)[C@@H]1CSSC[C@H](NC(=O)[C@H](CC(=O)O)NC(=O)[C@@H]2CCCN2C(=O)[C@@H](NC(=O)[C@@H](N)CCC(=O)O)[C@@H](C)O)C(=O)N[C@@H](Cc2ccccc2)C(=O)N[C@@H](Cc2c[nH]c3ccccc23)C(=O)N[C@@H](CCCCN)C(=O)N[C@@H](Cc2ccc(O)cc2)C(=O)N1)C(=O)O [human U-II, reference compound] |  | 1.09 ± 0.1 nM | 

Second part, led by results:

IC50 [1] | EC50 (isolated rat aortic arch) | Structure (SMILES) | pD2′ (functional inhibitory potency) (isolated rat aortic arch)
125 nM |  | COc1cc2c(cc1OC)C(CCc1ccccc1)N(CCNC(=O)Nc1cc(C)nc3ccccc13)CC2 (stereo not shown) [Example 29, 1-[2-(6,7-Dimethoxy-1-phenethyl-3,4-dihydro-1H-isoquinolin-2-yl)-ethyl]-3-(2-methyl-quinolin-4-yl)-urea] | 5.23
63 nM |  | COc1ccc(CCC2c3cc(OC)c(OC)cc3CCN2CCNC(=O)Nc2cc(C)nc3ccccc23)cc1OC (stereo not shown) [Example 22, 1-(2-{1-[2-(3,4-Dimethoxy-phenyl)-ethyl]-6,7-dimethoxy-3,4-dihydro-1H-isoquinolin-2-yl}-ethyl)-3-(2-methyl-quinolin-4-yl)-urea] | 
550 nM |  | COc1cc2c(c(OC)c1)C(Cc1ccc(OC)c(OC)c1)N(CCNC(=O)Nc1cc(C)nc3ccccc13)CC2 (stereo not shown) [Example 58, 1-{2-[1-(3,4-Dimethoxy-benzyl)-6,8-dimethoxy-3,4-dihydro-1H-isoquinolin-2-yl]-ethyl}-3-(2-methyl-quinolin-4-yl)-urea] | 
